Each structure is given as a SMILES string. A value given as a limit tells only on which side of the number the result lay.

The subject of experiment [1] is HCT116 p53+/+ colon cancer cells. Description: Antiproliferative activity (MTT assay), HCT116 p53+/+. In kind it is cell-based, human. Conditions: cells treated for 96 h, mean ± SD, read-out: Cell viability IC50, HCT116 p53+/+ (colon). An excerpt:
(§1) The human ovarian carcinoma cisplatin-sensitive A2780 cells, cisplatin-resistant A2780cisR (a cisplatin-resistant variant of A2780 cells), human cervical carcinoma HeLa cells, human breast cancer MCF-7 cells and human colorectal carcinoma cells HCT-116 (for experiments performed at the Czech Academy of Sciences) were kindly supplied by Professor B. Keppler, University of Vienna (Austria). Human colon carcinoma cells expressing p53 (HCT116 p53^+/+) were a kind gift of Dr M. Brazdova, Institute of Biophysics, Brno (Czech Republic). […] These solutions were removed, dimethyl sulfoxide was added to each well, and the absorbance at 540 nm was read using a Thermo Scientific Multiskan EX microplate photometer. The IC50 values were determined from a plot of percentage cell survival against drug concentration (in μM). All assays were conducted in triplicate and the mean IC50 ± standard deviation was determined. page 43: 8. […] Cell survival was determined as the absorbance of treated cells minus the blank cell media, divided by the absorbance of the untreated control; this value was expressed as a percentage. The IC50 values were determined from a plot of percentage cell survival against drug concentration (µM). All assays were conducted in triplicate and the mean IC50 ± standard deviation was determined. […]
In general terms: Tetrazolium dyes change colour on reduction, which living cells bring about.

Another experiment deals with HCT116 p53-/- (colon). Description: Antiproliferative activity (MTT assay), HCT116 p53-/-. In kind it is cell-based, human.
From the text: as §1

The next experiment has as its system A2780cisR (ovarian). Description: Antiproliferative activity (MTT assay), A2780cisR. In kind it is cell-based, human. Conditions: 72 h, mean ± SD, read-out: Cell viability IC50, A2780cisR (ovarian).
From the text: as §1

Experiment [2] deals with ARPE-19 (non-cancerous) cells. Description: Antiproliferative activity (MTT assay), ARPE-19. In kind it is cell-based, human. Conditions: cells treated for 96 h, mean ± SD, read-out: Cell viability IC50, ARPE-19 (retinal).
From the text: as §1

The subject of a further experiment is MRC-5 pd30 (lung). Description: Antiproliferative activity (MTT assay), MRC-5 pd30. Conditions: 72 h, mean ± SD, read-out: Cell viability IC50, MRC-5 pd30 (lung). In kind it is cell-based, human.
From the text: as §1

For another experiment, the system named is HMF (breast). Description: Antiproliferative activity (MTT assay), HMF. Conditions: cells treated for 96 h, mean ± SD, read-out: Cell viability IC50, HMF (breast). In kind it is cell-based.
From the text: as §1

For a further experiment, the system named is WI-38 (lung). Nature of the experiment: Antiproliferative activity (MTT assay), WI-38. In kind it is cell-based. Conditions: cells treated for 96 h, mean ± SD, read-out: Cell viability IC50, WI-38 (lung).
From the text: as §1

In the case of `N.N.[Cl][Pt][Cl]` [Cisplatin, cisplatin], the IC50 in experiment [1] worked out at 3.3 ± 0.4 µM; in the experiment with HCT116 p53-/- (colon) (MTT, cells treated for 96 h, mean ± SD, read-out: Cell viability IC50, HCT116 p53-/- (colon)), 7.5 ± 0.7 µM; with A2780cisR (ovarian), 20 ± 3 µM; in experiment [2] it was 6.4 ± 1 µM; in the experiment on MRC-5 pd30 (lung), 12 ± 1 µM; with HMF (breast) it was 18 ± 2 µM. Besides, the IC50 with WI-38 (lung) stood at 2.2 ± 0.8 µM. Moreover, the “loss of activity towards HCT116 p53-/- cells relative to p53+/+ isogenic clones” value with HCT116 p53-/- (colon) (HCT116 p53-/- vs p53+/+ (Table 1)) is above 2 fold.

The record behind these values is article PMC6839601, “Discovery of selective, antimetastatic and anti-cancer stem cell metallohelices via post-assembly modification” (Chemical Science, 2019).
